# In patent US20260159503A1, “1,2,3-TRIAZOLE LINKER-CONTAINING COMPOUNDS” (HIGH POINT UNIVERSITY, priority 2024, published 2026):
# Columns and labels:
# human D3R = molecular target: T1, human D3R (Homo sapiens, UniProt P35462); assay: DiscoverX PathHunter β-arrestin recruitment assay, D3R; assay type: cell-based; details: triazole; antagonist; read-out: potency, β-arrestin recruitment at the D3R
# T1 construct: host or cells: CHO-K1
# Method: (§1) Luminescence was measured on a Hamamatsu FDSS μCell reader.
# (§2) Efficacy/antagonist % (Ant. %) values were obtained from nonlinear regression of meaned data obtained from at least three independent experiments with triplicate measures. Values are presented as means±SEM.
# human D2R long isoform = molecular target: T2, human D2R long isoform (Homo sapiens, UniProt P14416); assay: DiscoverX PathHunter β-arrestin recruitment assay, D2R; assay type: cell-based; details: triazole; antagonist; read-out: potency, β-arrestin recruitment at the D2R
# T2 construct: host or cells: CHO-K1
# T2 sequence (P14416 whole entry, canonical isoform): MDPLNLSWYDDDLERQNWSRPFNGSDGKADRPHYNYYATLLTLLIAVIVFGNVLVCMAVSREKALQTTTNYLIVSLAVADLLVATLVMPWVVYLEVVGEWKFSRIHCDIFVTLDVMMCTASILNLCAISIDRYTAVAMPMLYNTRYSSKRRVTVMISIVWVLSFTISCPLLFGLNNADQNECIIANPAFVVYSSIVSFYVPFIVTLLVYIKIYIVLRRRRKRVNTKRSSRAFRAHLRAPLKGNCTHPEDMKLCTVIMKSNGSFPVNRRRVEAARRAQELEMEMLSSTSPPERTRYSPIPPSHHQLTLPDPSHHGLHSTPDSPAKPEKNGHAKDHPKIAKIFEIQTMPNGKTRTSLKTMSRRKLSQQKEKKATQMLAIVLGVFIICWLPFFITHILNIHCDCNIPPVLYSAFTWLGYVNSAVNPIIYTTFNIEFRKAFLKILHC
# Method: as §1, §2
# T1 sequence (P35462 whole entry): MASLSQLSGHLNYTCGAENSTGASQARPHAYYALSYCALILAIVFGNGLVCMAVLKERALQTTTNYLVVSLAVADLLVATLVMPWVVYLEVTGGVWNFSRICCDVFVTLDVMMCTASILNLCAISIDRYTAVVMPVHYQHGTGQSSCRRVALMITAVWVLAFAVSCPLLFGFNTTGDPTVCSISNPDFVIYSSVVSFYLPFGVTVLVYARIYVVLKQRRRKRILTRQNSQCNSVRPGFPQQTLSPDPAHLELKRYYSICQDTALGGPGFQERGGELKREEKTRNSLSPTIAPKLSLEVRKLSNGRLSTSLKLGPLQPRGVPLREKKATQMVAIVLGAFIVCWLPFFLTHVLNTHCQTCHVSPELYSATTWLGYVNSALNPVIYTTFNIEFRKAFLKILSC
smiles,measurement,setting,value
"Cc1cccc(-n2cc(CN3CCC(c4ccccc4)CC3)nn2)c1 [Compound 14, 4-phenyl-1-((1-(m-tolyl)-1H-1,2,3-triazol-4-yl)methyl)piperidine]",IC50,human D3R,> 6 µM
same,IC50,human D2R long isoform,> 6 µM
